These results are taken from paper PMC6515238, “Novel C-2 Symmetric Molecules as α-Glucosidase and α-Amylase Inhibitors: Design, Synthesis, Kinetic Evaluation, Molecular Docking and Pharmacokinetics” (Molecules, 2019).

In one data set the test system is glucoamylase. On the set-up: method as in PMID 28482265. Particulars: cited from earlier work.
The subject of another data set is maltase. On the set-up: method as in PMID 28482265. Particulars: cited from earlier work.
The next data set has as its system isomaltase. Details: method as in PMID 28482265. Particulars: cited from earlier work.
The target in data set [1] is T1, α-amylase from porcine pancreas (Sus scrofa, UniProt P00690).
T1 construct: α-amylase from porcine pancreas (Sigma A3176-500KU, 089K1661); purchased Sigma A3176-500KU (lot 089K1661); host or cells: porcine pancreas
T1 sequence (P00690 16-511): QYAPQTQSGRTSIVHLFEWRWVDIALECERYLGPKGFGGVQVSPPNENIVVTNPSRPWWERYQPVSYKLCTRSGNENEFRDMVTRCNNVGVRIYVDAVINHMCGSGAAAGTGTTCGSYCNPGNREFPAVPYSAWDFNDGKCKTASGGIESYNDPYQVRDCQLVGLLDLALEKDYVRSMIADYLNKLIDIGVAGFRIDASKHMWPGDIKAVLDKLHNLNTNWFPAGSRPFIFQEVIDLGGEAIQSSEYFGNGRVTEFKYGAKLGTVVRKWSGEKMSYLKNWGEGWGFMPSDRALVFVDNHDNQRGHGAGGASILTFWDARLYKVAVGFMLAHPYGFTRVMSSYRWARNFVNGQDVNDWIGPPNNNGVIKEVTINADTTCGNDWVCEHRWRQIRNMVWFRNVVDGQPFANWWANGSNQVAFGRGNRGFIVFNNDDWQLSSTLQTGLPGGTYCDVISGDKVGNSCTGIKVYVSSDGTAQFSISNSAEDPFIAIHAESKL
Description: α-Amylase inhibition assay. The format is biochemical. Particulars: mean ± SEM; starch substrate, DNSA. As to the method:
The α-amylase inhibitory activity of sinigrin was determined according to a previously reported method with slight modifications. Briefly, 40 μL of a solution of the test inhibitor and 40 μL of enzyme solution (α-amylase from porcine pancreas (Sigma A3176-500KU, 089K1661) in a buffer of 0.02 M sodium phosphate at pH 6.9 with 0.006 M sodium chloride) were added to a 1.5-mL Eppendorf tube and incubated for 10 min at room temperature. […] Then, 100 μL of DNSA colouring reagent (10 g of sodium potassium tartrate, 1 g of 3,5-dinitrosalicylic acid and 20 mL of 2 N NaOH to a final volume of 100 mL in distilled water) was added, and the mixture was incubated in a boiling water bath for 5 min. After cooling to room temperature, the reaction mixture was diluted to 500 μL using distilled water, and the absorbance was recorded at 540 nm. For non-enzymatic reactions, the assays were performed with a blank containing all of the components except the enzyme. The values of the % inhibition and IC50 were calculated from the results of the assays using the same procedure as that described for the α-glucosidase inhibition assays.

Data set [2] is described as follows: DPPH free radical scavenging assay. Particulars: 100 µg/mL. The protocol: Radical scavenging activity was determined by modifying a previously reported 2,2-diphenyl-1-picrylhydrazyl (DPPH) assay. The assay solution consisted of 100 µL of DPPH solution (150 µM), 20 µL of the test compounds solution at increasing concentrations, and enough DMSO to bring the volume of solution in each well to 200 µL. The reaction mixture was then incubated for 30 min at room temperature. Ascorbic acid (vitamin C) was used as a reference inhibitor. The assay measurements were carried out using a micro plate reader (OPTIMax, Tunable) at 520 nm. The reaction rates were compared, and the percentages of inhibition caused by the presence of the test inhibitors were calculated. Each concentration was analysed in three independent experiments run in triplicate.

The target of another data set is α-glucosidase (Saccharomyces cerevisiae, UniProt P53341). Description: Kinetic study of α-glucosidase (Lineweaver-Burk). The format is biochemical. Particulars: Lineweaver-Burk plot. As to the method: To understand the inhibition mechanism of the synthesized compounds on α-glucosidase, an inhibition kinetics study was performed. […] In our evaluation of the kinetics of the enzyme, the Lineweaver-Burk plot of 1/V versus 1/[S] in the presence of different inhibitor concentrations gave a series of straight lines. […] Km increases with increasing concentration, while Vmax remains essentially constant.
Chain of α-glucosidase (P53341 whole entry): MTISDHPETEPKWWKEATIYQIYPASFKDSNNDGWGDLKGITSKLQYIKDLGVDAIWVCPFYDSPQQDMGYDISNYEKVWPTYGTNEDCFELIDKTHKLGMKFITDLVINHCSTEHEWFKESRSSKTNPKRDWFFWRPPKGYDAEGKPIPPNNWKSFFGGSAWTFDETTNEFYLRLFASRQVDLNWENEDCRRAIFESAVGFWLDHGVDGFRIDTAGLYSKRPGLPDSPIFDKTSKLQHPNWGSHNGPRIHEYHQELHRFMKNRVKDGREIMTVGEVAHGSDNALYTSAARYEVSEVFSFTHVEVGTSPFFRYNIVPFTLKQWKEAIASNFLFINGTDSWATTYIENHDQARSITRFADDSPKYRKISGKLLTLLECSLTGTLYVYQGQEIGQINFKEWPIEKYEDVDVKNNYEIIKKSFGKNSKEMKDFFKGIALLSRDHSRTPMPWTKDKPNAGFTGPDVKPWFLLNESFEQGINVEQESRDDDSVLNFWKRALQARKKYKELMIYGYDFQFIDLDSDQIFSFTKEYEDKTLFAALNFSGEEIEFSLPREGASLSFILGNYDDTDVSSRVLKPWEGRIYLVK
A series of experiments was performed to calculate the inhibition kinetics of 5g. The tested concentrations of 5g were 0.00, 0.15 and 0.3. The concentration of substrate, p-nitrophenyl-α-D-glucopyranoside, was between 0.3125 and 10 mM in all the kinetics experiments. The pre-incubation and measurement times were the same as those discussed in the α-glucosidase inhibition assay procedure. The maximal initial velocity was determined from the initial linear portion of absorbance in the first five minutes following the addition of the enzyme at 30 s intervals. The type of inhibition of the enzyme was assessed by preparing Lineweaver-Burk plots of the inverse of the velocities (1/V) versus the inverse of the substrate concentration 1/[S] mM^−1. The EI dissociation constant, Ki, was determined by the secondary plot of 1/V versus the inhibitor concentration.

Take `C[C@H]1O[C@H](O[C@H]2[C@H](O)[C@@H](O)[C@@H](O[C@H]3[C@H](O)[C@@H](O)C(O)O[C@@H]3CO)O[C@@H]2CO)[C@H](O)[C@@H](O)[C@@H]1N[C@H]1C=C(CO)[C@@H](O)[C@H](O)[C@H]1O` (some centres unmarked) [Acarbose, acarbose]: the inhibition of glucoamylase in the data set with glucoamylase is reported as 90%. Besides, the inhibition of maltase in the data set with maltase was 60%. In addition, in the data set on isomaltase, the inhibition of isomaltase was 10%.

As usually defined, the IC50 is the point on the concentration scale where inhibition reaches its midpoint. A low value points to greater potency in that assay. One may read the melting point as the temperature, or range, at which the solid turns liquid. As for `O=[N+]([O-])c1ccc(/N=N/c2ccc(O)c(/C=N/N=C/c3cc(/N=N/c4ccc([N+](=O)[O-])cc4[N+](=O)[O-])ccc3O)c2)c([N+](=O)[O-])c1` [Compound 5a, (E)-2,2’-((1E,1’E)-Hydrazine-1,2-diylidenebis(methanylylidene))bis(4-((E)-(2,4-dinitrophenyl)diazenyl)phenol)], the melting point came out at 275 °C. This molecule gave an IC50 in data set [1] of 8.54 ± 0.653 µM.

`Oc1ccc(/N=N/c2cccc(Cl)c2Cl)cc1/C=N/N=C/c1cc(/N=N/c2cccc(Cl)c2Cl)ccc1O` [Compound 5b, (E)-2,2’-((1E,1’E)-Hydrazine-1,2-diylidenebis(methanylylidene))bis(4-((E)-(2,3-dichlorophenyl)diazenyl)phenol)] returned a melting point of 222 °C. In data set [1], this molecule showed an IC50 of 28.4 ± 2.17 µM.

As for `Oc1ccc(/N=N/c2ccccc2Cl)cc1/C=N/N=C/c1cc(/N=N/c2ccccc2Cl)ccc1O` [Compound 5c, (E)-2,2’-((1E,1’E)-Hydrazine-1,2-diylidenebis(methanylylidene))bis(4-((E)-(2-chlorophenyl)diazenyl)phenol)], the melting point was found to be 195 °C. In data set [1], this molecule showed a half-maximal inhibitory concentration (IC50) of 9.55 ± 0.73 µM.

`Oc1ccc(/N=N/c2ccc(Cl)cc2)cc1/C=N/N=C/c1cc(/N=N/c2ccc(Cl)cc2)ccc1O` [Compound 5d, (E)-2,2’-((1E,1’E)-Hydrazine-1,2-diylidenebis(methanylylidene))bis(4-((E)-(4-chlorophenyl)diazenyl)phenol)] gave a melting point of 205 °C. In data set [1], 9.72 ± 0.863 µM corresponded to half-maximal inhibition (IC50). In addition, the “Free radical scavenging activity (%)” value in data set [2] was “did not show significant scavenging potencies”.

For the molecule `NS(=O)(=O)c1ccc(/N=N/c2ccc(O)c(/C=N/N=C/c3cc(/N=N/c4ccc(S(N)(=O)=O)cc4)ccc3O)c2)cc1` [Compound 5e, 4,4’-((1E,1’E)-(((1E,1’E)-Hydrazine-1,2-diylidenebis(methanylylidene))bis(4-hydroxy-3,1-phenylene))bis(diazene-2,1-diyl))dibenzenesulfonamide], the melting point worked out at 225 °C. The same molecule registered an IC50 in data set [1] of 28.5 ± 2.08 µM.

`O=S(=O)([O-])c1ccc(/N=N/c2ccc(O)c(/C=N/N=C/c3cc(/N=N/c4ccc(S(=O)(=O)[O-])cc4)ccc3O)c2)cc1.[Na+].[Na+]` [Compound 5f, Sodium 4,4’-((1E,1’E)-(((1E,1’E)-hydrazine-1,2-diylidenebis(methanylylidene))bis(4-hydroxy-3,1-phenylene))bis(diazene-2,1-diyl))dibenzenesulfonate] returned a melting point of 240 °C. This molecule also returned an IC50 in data set [1] of 4.29 ± 0.328 µM. Moreover, in data set [2], the “Free radical scavenging activity (%)” value is “did not show significant scavenging potencies”.

In turn, `O=[N+]([O-])c1ccc(/N=N/c2ccc(O)c(/C=N/N=C/c3cc(/N=N/c4ccc([N+](=O)[O-])cc4)ccc3O)c2)cc1` [Compound 5g, (E)-2,2’-((1E,1’E)-Hydrazine-1,2-diylidenebis(methanylylidene))bis(4-((E)-(4-nitrophenyl)diazenyl)phenol)] came in with a melting point of 215 °C. In addition, in data set [1], 0.438 ± 0.042 µM corresponded to half-maximal inhibition (IC50). Also, at α-glucosidase, the type of inhibition result is reported as “competitive”. Also, in data set [2], the “Free radical scavenging activity (%)” value is listed as “did not show significant scavenging potencies”.

Consider `Oc1ccc(/N=N/c2cccc(Cl)c2)cc1/C=N/N=C/c1cc(/N=N/c2cccc(Cl)c2)ccc1O` [Compound 5h, (E)-2,2’-((1E,1’E)-Hydrazine-1,2-diylidenebis(methanylylidene))bis(4-((E)-(3-chlorophenyl)diazenyl)phenol)], for which the melting point came out at 210 °C. Besides, the IC50 in data set [1] was found to be 0.59 ± 0.012 µM.
